# How the values were obtained:
# [1] = target: T1, FAR-RXRα complex (rat FAR and human RXRα) (Rattus norvegicus, UniProt Q62735, D356M/DEL339-355/E357R/INS337LPDTQTCWKKEFERAAS); assay: hsp27-EcRE×5 MTV-luciferase reporter cotransfection in CV-1 cells expressing FAR and RXRα; format: cell-based; conditions: for activation of FAR-RXRα complex, hsp27 EcRE reporter: FIG. 5C
# T1 construct: expressed in transfected cells; host or cells: CV-1 cells, CMV-driven expression vectors
# T1 sequence (Q62735 1-469): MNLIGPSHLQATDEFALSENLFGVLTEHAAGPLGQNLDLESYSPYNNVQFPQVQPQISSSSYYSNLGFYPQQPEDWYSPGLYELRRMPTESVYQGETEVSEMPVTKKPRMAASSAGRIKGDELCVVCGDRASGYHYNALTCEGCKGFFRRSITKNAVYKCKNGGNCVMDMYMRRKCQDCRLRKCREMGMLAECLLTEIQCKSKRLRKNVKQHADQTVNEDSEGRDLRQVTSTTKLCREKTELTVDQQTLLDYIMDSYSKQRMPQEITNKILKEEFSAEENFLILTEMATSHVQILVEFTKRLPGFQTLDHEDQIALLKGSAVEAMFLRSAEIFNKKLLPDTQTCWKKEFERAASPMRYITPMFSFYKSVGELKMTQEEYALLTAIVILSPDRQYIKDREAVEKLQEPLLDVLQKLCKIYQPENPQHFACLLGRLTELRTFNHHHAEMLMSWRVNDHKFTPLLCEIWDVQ
# T1 sequence (P19793 1-462 partner): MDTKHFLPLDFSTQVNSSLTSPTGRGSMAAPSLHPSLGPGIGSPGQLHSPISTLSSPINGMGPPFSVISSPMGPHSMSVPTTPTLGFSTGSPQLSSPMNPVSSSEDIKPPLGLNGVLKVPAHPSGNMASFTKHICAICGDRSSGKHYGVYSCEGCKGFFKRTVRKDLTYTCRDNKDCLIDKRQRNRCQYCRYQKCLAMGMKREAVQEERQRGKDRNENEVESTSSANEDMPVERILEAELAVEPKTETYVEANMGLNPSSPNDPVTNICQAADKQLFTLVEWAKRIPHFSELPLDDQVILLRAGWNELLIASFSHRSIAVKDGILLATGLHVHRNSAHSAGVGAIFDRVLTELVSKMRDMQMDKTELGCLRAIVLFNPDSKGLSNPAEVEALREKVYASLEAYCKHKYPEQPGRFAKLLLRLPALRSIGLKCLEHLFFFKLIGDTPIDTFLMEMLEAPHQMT
# Protocol: Thus, CV-1 cells were grown in DMEM supplemented with 10% AG1-X8 resin-charcoal stripped calf bovine serum, 50 U/ml penicillin G and 50 μg/ml streptomycin sulfate (DMEM-CBS) at 37° C. in 5% CO2. One day prior to transfection, cells were plated to 50-80% confluence using phenol-red free DMEM with 10% resin charcoal stripped fetal bovine serum (DMEM-FBS). Cells were transfected (with reporter construct (300 ng/10^5 cells), cytomegalovirus driven receptor (100 ng/10^5 cells) and β-galactosidase expression vectors (500 ng/10^5 cells) as indicated in FIG. 4) by lipofection using N-{2-(2,3)-dioleoyloxy)propyl-N,N,N-trimethyl ammonium methyl sulfate} according to the manufacturer's instructions (DOTAP, Boehringer Mannheim). […] Cells were harvested and assayed for luciferase and β-galactosidase activity. […] Data points were normalized for differences in transfection efficiency using β-galactosidase, and plotted as relative activity where the untreated reporter is defined to have an activity of 1 unit.
# (§1) Based on the identification of an EcRE as a DNA target, a reporter plasmid was constructed containing 5 copies of the hsp27 response element linked to a truncated mouse mammary tumor virus promoter (Yao et al., Nature 366:476-479 (1993)). This reporter was cotransfected into CV-1 cells alone, or with expression vectors for FAR and/or RXRα. Cotransfected cells were treated with a variety of potential ligands and monitored for changes in luciferase activity.
# Thus, with reference to FIG. 5A, CV-1 cells were transiently transfected with hsp27-EcRE×5 MTV-luciferase alone (−) or with expression vectors for rat FAR and/or human RXRα. Reporter activity was assayed after treating cells with or without 50 μM JH III.
# CV-1 cells were transiently transfected as described above with reference to FIG. 5A, but treated with or without 50 μM JH III, 100 nM LG69 and JH III+LG69.
# Thus, CV-1 cells were transiently transfected with expression vectors for rat FR and human RXRα, as described above in Example 3. […] Data is plotted in FIG. 6A as fold activation relative to untreated cells.
# rat FAR = target: T2, rat FAR (Rattus norvegicus, UniProt Q62735, D356M/DEL339-355/E357R/INS337LPDTQTCWKKEFERAAS); assay: hsp27-EcRE×5 MTV-luciferase reporter in CV-1 cells expressing FAR alone; format: cell-based; conditions: 50 μM JH III; FIG. 5A
# T2 construct: expressed in transfected cells; host or cells: CV-1 cells, CMV-driven expression vector
# T2 sequence (Q62735 1-469 INS337LPDTQTCWKKEFERAAS/DEL339-355/D356M/E357R): T1 sequence (Q62735 1-469)
# Protocol: Thus, CV-1 cells were grown in DMEM supplemented with 10% AG1-X8 resin-charcoal stripped calf bovine serum, 50 U/ml penicillin G and 50 μg/ml streptomycin sulfate (DMEM-CBS) at 37° C. in 5% CO2. One day prior to transfection, cells were plated to 50-80% confluence using phenol-red free DMEM with 10% resin charcoal stripped fetal bovine serum (DMEM-FBS). Cells were transfected (with reporter construct (300 ng/10^5 cells), cytomegalovirus driven receptor (100 ng/10^5 cells) and β-galactosidase expression vectors (500 ng/10^5 cells) as indicated in FIG. 4) by lipofection using N-{2-(2,3)-dioleoyloxy)propyl-N,N,N-trimethyl ammonium methyl sulfate} according to the manufacturer's instructions (DOTAP, Boehringer Mannheim). […] Cells were harvested and assayed for luciferase and β-galactosidase activity. All points were performed in triplicate and varied by less than 10%. Experiments were repeated three or more time with similar results. […]
# as §1, with “This reporter was cotransfected into CV-1 cells alone, or with expression vectors for FAR and/or RXRα.” left out, “activity. […]” for “activity.”
# human RXRα = target: T3, human RXRα (Homo sapiens, UniProt P19793); assay: luciferase reporter in CV-1 cells expressing RXRα alone (hsp27-EcRE×5 MTV; CRBPII-TK); format: cell-based; conditions: 50 μM JH III; FIGS. 5A and 5B
# T3 construct: expressed in transfected cells; host or cells: CV-1 cells, CMV-driven expression vector
# T3 sequence (P19793 1-462): T1 sequence (P19793 1-462 partner)
# Protocol: (§2) Thus, CV-1 cells were grown in DMEM supplemented with 10% AG1-X8 resin-charcoal stripped calf bovine serum, 50 U/ml penicillin G and 50 μg/ml streptomycin sulfate (DMEM-CBS) at 37° C. in 5% CO2. One day prior to transfection, cells were plated to 50-80% confluence using phenol-red free DMEM with 10% resin charcoal stripped fetal bovine serum (DMEM-FBS). Cells were transfected (with reporter construct (300 ng/10^5 cells), cytomegalovirus driven receptor (100 ng/10^5 cells) and β-galactosidase expression vectors (500 ng/10^5 cells) as indicated in FIG. 4) by lipofection using N-{2-(2,3)-dioleoyloxy)propyl-N,N,N-trimethyl ammonium methyl sulfate} according to the manufacturer's instructions (DOTAP, Boehringer Mannheim). […] Cells were harvested and assayed for luciferase and β-galactosidase activity. All points were performed in triplicate and varied by less than 10%. Experiments were repeated three or more time with similar results. Data points were normalized for differences in transfection efficiency using β-galactosidase, and plotted as relative activity where the untreated reporter is defined to have an activity of 1 unit.
# Thus, with reference to FIG. 5A, CV-1 cells were transiently transfected with hsp27-EcRE×5 MTV-luciferase alone (−) or with expression vectors for rat FAR and/or human RXRα. Reporter activity was assayed after treating cells with or without 50 μM JH III. […]
# Drosophila G-EcR+USP = assay: G-EcR+USP / hsp27-EcRE×5 MTV luciferase reporter; format: cell-based; conditions: 50 μM JH III; FIG. 5B
# Protocol: as §2, with “unit. […]” for “unit.”
# human T3Rβ = target: T4, human T3Rβ (Homo sapiens, UniProt P10828); assay: T3Rβ / TREp×2-TK luciferase reporter; format: cell-based; conditions: 50 μM JH III; FIG. 5B
# T4 construct: expressed in transfected cells
# T4 sequence (P10828 1-461): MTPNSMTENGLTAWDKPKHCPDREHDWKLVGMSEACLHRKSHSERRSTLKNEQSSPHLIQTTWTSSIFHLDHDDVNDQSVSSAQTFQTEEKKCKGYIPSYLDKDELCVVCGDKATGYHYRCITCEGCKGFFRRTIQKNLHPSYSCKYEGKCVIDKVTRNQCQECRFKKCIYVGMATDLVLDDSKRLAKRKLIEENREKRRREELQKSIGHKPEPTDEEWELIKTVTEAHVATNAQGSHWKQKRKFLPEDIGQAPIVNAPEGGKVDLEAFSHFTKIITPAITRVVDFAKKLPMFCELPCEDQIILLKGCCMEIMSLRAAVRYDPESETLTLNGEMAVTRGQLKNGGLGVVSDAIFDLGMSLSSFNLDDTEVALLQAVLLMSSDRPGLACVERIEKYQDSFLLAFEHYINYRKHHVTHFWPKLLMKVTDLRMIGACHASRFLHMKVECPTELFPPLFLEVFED
# Protocol: as §2, with “unit. […]” for “unit.”
# human RARα = target: T5, human RARα (Homo sapiens, UniProt P10276); assay: RARα / DR5×2-TK luciferase reporter; format: cell-based; conditions: 50 μM JH III; FIG. 5B
# T5 construct: expressed in transfected cells
# T5 sequence (P10276 1-462): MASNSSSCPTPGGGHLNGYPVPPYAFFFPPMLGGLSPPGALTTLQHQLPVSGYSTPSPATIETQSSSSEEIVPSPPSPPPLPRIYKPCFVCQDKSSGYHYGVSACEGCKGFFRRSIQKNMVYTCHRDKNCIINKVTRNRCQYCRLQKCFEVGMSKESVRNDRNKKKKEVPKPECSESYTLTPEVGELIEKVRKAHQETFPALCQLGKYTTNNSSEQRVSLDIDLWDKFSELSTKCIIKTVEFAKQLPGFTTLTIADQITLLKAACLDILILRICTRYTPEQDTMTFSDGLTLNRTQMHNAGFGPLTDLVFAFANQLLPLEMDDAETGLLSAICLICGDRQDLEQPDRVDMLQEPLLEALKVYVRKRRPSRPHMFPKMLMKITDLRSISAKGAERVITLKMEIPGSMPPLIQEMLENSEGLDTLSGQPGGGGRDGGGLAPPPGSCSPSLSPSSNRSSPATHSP
# Protocol: as §2, with “unit. […]” for “unit.”
# [2] = target: T1, FAR-RXRα complex (rat FAR and human RXRα); assay: hsp27-EcRE×5 MTV-luciferase reporter cotransfection in CV-1 cells expressing FAR and RXRα; format: cell-based; conditions: JH III; parental MTV reporter without EcREs
# ornithine decarboxylase = conditions: 100 μM; bovine lymphocytes; cited from earlier work
# HMG-CoA reductase = conditions: by a mevalonate-derived non-sterol; cited from earlier work
compound,measurement,setting,value
"C[C@H](CCC1OC1(C)C)[C@H]1CC[C@H]2[C@@H]3CC=C4C[C@@H](O)CC[C@]4(C)[C@H]3CC[C@]12C (some centres unmarked) [24,25-epoxycholesterol]",activation of FAR-RXRα (in words),"[1]; 50 μM, FIG. 6A",little or no activation
C[C@H](CCCC(C)(C)O)[C@H]1CC[C@H]2[C@@H]3CC=C4C[C@@H](O)CC[C@]4(C)[C@H]3CC[C@]12C [25-hydroxycholesterol],activation of FAR-RXRα (in words),[1]; 10 μM,little or no activation
"COC(=O)/C=C(\C)CC/C=C(\C)CCC1OC1(C)C (stereo not drawn) [JH III, cis-10,11-epoxy-3,7,11-trimethyl-trans-trans-2,6-dodecadienoic acid methyl ester]",induction of luciferase activity,"[1]; 50 μM JH III, CV-1 cells expressing both FAR and RXRα, FIG. 5A",10 fold
same,"activation of FAR-RXRα complex, hsp27 EcRE reporter",[1]; 50 μM JH III,17 fold
same,activation of FAR alone,rat FAR,fails to activate
same,activation of RXRα alone,human RXRα,fails to activate
same,activation of ecdysone receptor (EcR+USP),Drosophila G-EcR+USP,failed to activate
same,activation of thyroid hormone receptor (T3R),human T3Rβ,failed to activate
same,activation of all-trans retinoic acid receptor (RAR),human RARα,failed to activate
same,activation of FAR-RXR complexes using parental MTV reporter construct lacking the EcREs,[2],failed to activate
same,antagonism of induction of ornithine decarboxylase by phorbol esters and phytohemagglutinin,ornithine decarboxylase,can be antagonized
"CC=C(c1ccc(C(=O)O)cc1)c1cc2c(cc1C)C(C)(C)CCC2(C)C [LG69, (4-{1-3,5,5,8,8-pentamethyl-5,6,7,8-tetrahydro-2-napthalenyl)-1-propenyl}benzoic acid]","activation of FAR-RXRα complex, hsp27 EcRE reporter",[1]; 100 nM LG69,76 fold
CC(C)=CCCC(C)=CCCC(C)=CC=O [farnesal],activation of FAR-RXRα (in words),"[1]; 50 μM, FIG. 6A",weaker activity
CC(C)=CCCC(C)=CCCC(C)=CC(=O)O [farnesoic acid],activation of FAR-RXRα (in words),"[1]; 50 μM, FIG. 6A",little or no activation
CC(C)=CCC/C(C)=C/CO [geraniol],activation of FAR-RXRα (in words),"[1]; 50 μM, FIG. 6A",little or no activation
CC(C)=CCC/C(C)=C/CC/C(C)=C/CC/C(C)=C/CO [geranylgeraniol],activation of FAR-RXRα (in words),"[1]; 50 μM, FIG. 6A",weaker activity
CC(C)=CCC[C@@H](C)[C@H]1CC[C@@]2(C)C3=C(CC[C@]12C)[C@@]1(C)CC[C@H](O)C(C)(C)[C@@H]1CC3 [lanosterol],activation of FAR-RXRα (in words),"[1]; 50 μM, FIG. 6A",little or no activation
CC(O)(CCO)CC(=O)O (centres unmarked) [mevalonate],activation of FAR-RXRα (in words),"[1]; 50 μM, FIG. 6A",little or no activation
same,activation of FAR-RXRα (in words),"[1]; 200 μM, cells cotransfected with a mevalonate transporter protein",weak activity
same,concentration added to cells at which down-regulation of HMG-CoA reductase activity occurs,HMG-CoA reductase,> 100 µM
CC(=O)[C@H]1CC[C@H]2[C@@H]3CC=C4C[C@@H](O)CC[C@]4(C)[C@H]3CC[C@]12C [pregnenolone],activation of FAR-RXRα (in words),"[1]; 50 μM, FIG. 6A",little or no activation
CC(C)=CCC/C(C)=C/CC/C(C)=C/CC/C=C(\C)CC/C=C(\C)CCC1OC1(C)C (centres unmarked) [squalene epoxide],activation of FAR-RXRα (in words),"[1]; 50 μM, FIG. 6A",little or no activation
CC(C)=CCC/C(C)=C/CC/C(C)=C/CC/C=C(\C)CC/C=C(\C)CCC=C(C)C [squalene],activation of FAR-RXRα (in words),"[1]; 50 μM, FIG. 6A",little or no activation

# Reference: patent publication US7439027B2, “Method for modulating process mediated by farnesoid activated receptors” (The Salk Institute for Biological Studies, priority 1995, dated 2008)
